Experimental data as given in patent US20230399342A1 (Incyte Corporation, priority 2022, published 2023).

Assays:
DGKζ = DGKζ (Homo sapiens (Human), UniProt Q13574); assay: In vitro DGKζ inhibition assay (ADP-Glo); type: biochemical; details: His-tagged human recombinant enzyme, 0.4 nM DGK, 30 μM ATP, 20 μM DLG, 90 minute incubation
Protocol: (§1) The DGKα and DGKξ biochemical reactions were performed using His-tagged human recombinant enzymes (Signal Chem, DGKα, #D21-1OBH; DGKξ, #D30-10H)) and DLG (Dilauroyl-sn-glycerol) lipid substrate (Signal Chem, #D430-59). ADP-Glo assay was performed using ADP-Glog™ kinase Assay kit (Promega, #V9104). The reactions were carried out in assay buffer containing 40 mM Tris, pH 7.5, 0.1% CHAPS, 0.1% Prionex, 40 mM NaCl, 5 mM MgCl2, 1 mM CaCl2, and 1 mM DTT. DGKα reactions contained 0.1 nM DGKα, 50 μM ATP, and 20 μM DLG. And DGKC reactions contained 0.4 nM DGK, 30 μM ATP, and 20 μM DLG.
(§2) For compound inhibition studies, 40 nL test compound in DMSO was added to wells of white polystyrene plates in 384-well (Greiner, #784075) or 1536-well format (Greiner, #782075). Compounds were added with top concentration of 2 mM with 11 point, 3-fold dilution series. Enzyme solution (contains 2×DGK enzyme concentration in Ix assay buffer) was added to the plate in 2 μL/well volume, followed by 2 μL/well of substrate solution (contains 2×concentration of ATP and DLG substrate in Ix assay buffer). Plates were then centrifuged for 1 min at 1200 RPM and sealed or lidded. For 4 μL reaction volume, test compounds were therefore diluted 100× to final top concentration of 20 μM. After 90 minute incubation, reactions were quenched by addition of 2 μL/well Promega ADP-Glo Reagent, followed by centrifugation and lidding. After 60 min incubation, 2 μL/well Promega Kinase Detection Reagent was added, plates centrifuged, and incubated for 30 min. Plates were then read using Luminescence method on BMG PHERAstar FSX plate reader. Percent inhibition was calculated and IC50s were determined using 4-parameter fit in Genedata Screener. Labcyte Echo acoustic dispenser was used for compound addition, and Formulatrix Tempest liquid handler was used for all reagent dispenses.

DGKα = DGKα (Homo sapiens (Human), UniProt P23743); assay: In vitro DGKα inhibition assay (ADP-Glo); type: biochemical; details: His-tagged human recombinant enzyme, 0.1 nM DGKα, 50 μM ATP, 20 μM DLG, 90 minute incubation
Protocol: as §1, §2

Sequence of DGKα (P23743 whole entry): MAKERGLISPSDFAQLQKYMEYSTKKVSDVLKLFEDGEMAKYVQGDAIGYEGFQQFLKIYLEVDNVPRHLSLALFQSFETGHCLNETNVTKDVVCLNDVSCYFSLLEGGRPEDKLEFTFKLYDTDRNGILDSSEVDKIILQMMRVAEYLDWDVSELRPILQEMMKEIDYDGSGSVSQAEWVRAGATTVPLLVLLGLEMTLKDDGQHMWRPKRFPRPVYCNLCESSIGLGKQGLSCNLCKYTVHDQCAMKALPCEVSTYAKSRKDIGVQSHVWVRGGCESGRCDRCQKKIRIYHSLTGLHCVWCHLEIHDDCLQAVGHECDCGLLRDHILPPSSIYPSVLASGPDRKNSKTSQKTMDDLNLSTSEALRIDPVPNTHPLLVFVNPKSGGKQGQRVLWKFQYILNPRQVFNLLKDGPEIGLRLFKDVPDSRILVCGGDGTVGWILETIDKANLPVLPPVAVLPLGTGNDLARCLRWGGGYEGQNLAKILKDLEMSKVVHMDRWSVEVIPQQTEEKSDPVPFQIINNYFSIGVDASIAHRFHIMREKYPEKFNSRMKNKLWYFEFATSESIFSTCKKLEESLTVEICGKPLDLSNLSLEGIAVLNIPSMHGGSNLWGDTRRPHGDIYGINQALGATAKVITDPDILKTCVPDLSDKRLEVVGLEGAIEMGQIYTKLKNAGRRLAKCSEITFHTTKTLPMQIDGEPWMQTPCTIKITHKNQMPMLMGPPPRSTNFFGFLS
Sequence of DGKζ (Q13574 whole entry): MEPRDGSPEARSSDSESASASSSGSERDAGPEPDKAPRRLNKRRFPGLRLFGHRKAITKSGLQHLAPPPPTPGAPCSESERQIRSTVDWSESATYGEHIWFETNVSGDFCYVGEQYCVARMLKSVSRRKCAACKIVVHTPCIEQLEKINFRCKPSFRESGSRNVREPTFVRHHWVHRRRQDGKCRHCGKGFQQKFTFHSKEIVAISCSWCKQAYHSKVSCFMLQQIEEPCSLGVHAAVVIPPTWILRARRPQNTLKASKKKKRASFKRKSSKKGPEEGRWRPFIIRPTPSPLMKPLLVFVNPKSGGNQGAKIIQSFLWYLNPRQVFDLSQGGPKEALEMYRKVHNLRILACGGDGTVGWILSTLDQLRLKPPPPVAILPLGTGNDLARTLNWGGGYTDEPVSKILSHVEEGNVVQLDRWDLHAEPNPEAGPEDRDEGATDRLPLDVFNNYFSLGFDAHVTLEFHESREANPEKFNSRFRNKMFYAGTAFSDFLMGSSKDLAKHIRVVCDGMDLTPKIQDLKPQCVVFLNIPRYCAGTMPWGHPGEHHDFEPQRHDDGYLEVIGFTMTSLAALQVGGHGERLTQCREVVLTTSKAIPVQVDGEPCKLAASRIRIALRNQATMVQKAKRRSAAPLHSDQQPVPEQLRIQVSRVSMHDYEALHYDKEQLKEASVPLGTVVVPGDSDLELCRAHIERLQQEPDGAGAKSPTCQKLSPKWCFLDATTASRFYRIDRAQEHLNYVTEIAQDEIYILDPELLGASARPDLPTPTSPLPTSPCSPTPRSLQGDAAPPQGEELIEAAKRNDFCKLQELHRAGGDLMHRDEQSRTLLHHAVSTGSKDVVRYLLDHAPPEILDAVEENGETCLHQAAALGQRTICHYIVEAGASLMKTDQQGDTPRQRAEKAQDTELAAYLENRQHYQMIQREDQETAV

| Structure (SMILES) | IC50 (DGKζ) | IC50 (DGKα) |
| --- | --- | --- |
| C[C@@H]1CN(c2nc3nncn3c3c2ncn3CC2CC2)[C@@H](C)CN1[C@H](c1ccc(F)cc1)c1ccc(OC(F)(F)F)cn1 [Example 25, 1-(cyclopropylmethyl)-4-((2S,5R)-4-((R)-(4-fluorophenyl)(5-(trifluoromethoxy)pyridin-2-yl)methyl)-2,5-dimethylpiperazin-1-yl)-1H-[1,2,4]triazolo[3,4-b]purine] | 0.02 to 0.2 µM | ≤ 0.02 µM |
| C[C@@H]1CN(c2nc3nncn3c3c2ncn3C[C@@H]2CCCO2)[C@@H](C)CN1[C@@H](c1ccc(F)cc1)c1ccc(OC(F)(F)F)cn1 [Example 26, 4-((2S,5R)-4-((S)-(4-Fluorophenyl)(5-(trifluoromethoxy)pyridin-2-yl)methyl)-2,5-dimethylpiperazin-1-yl)-1-(((S)-tetrahydrofuran-2-yl)methyl)-1H-[1,2,4]triazolo[3,4-b]purine] | ≤ 0.02 µM | ≤ 0.02 µM |
| C[C@@H]1CN(c2nc3nncn3c3c2ncn3C[C@@H]2CCCO2)[C@@H](C)CN1[C@H](c1ccc(F)cc1)c1ccc(OC(F)(F)F)cn1 [Example 27, 4-((2S,5R)-4-((R)-(4-fluorophenyl)(5-(trifluoromethoxy)pyridin-2-yl)methyl)-2,5-dimethylpiperazin-1-yl)-1-(((S)-tetrahydrofuran-2-yl)methyl)-1H-[1,2,4]triazolo[3,4-b]purine] | ≤ 0.02 µM | ≤ 0.02 µM |
| C[C@@H]1CN(c2nc3nncn3c3c2ncn3CCN(C)C)[C@@H](C)CN1C(c1ccc(F)cc1)c1ccc(F)cc1 [Example 28, 2-(4-((2S,5R)-4-(Bis(4-fluorophenyl)methyl)-2,5-dimethylpiperazin-1-yl)-1H-[1,2,4]triazolo[3,4-b]purin-1-yl)-N,N-dimethylethan-1-amine] | ≤ 0.02 µM | ≤ 0.02 µM |
| C[C@@H]1CN(c2nc3nncn3c3c2nnn3C[C@H]2CCCO2)[C@@H](C)CN1C(c1ccc(F)cc1)c1ccc(F)cc1 [Example 29, 4-((2S,5R)-4-(Bis(4-fluorophenyl)methyl)-2,5-dimethylpiperazin-1-yl)-1-(((R)-tetrahydrofuran-2-yl)methyl)-1H-[1,2,3]triazolo[4,5-e][1,2,4]triazolo[4,3-a]pyrimidine] | ≤ 0.02 µM | ≤ 0.02 µM |
| CC[C@@H]1CN(c2nc3nncn3c3c2nnn3C[C@@H]2CCCO2)[C@@H](C)CN1C(c1ccc(F)cc1)c1ccc(F)cc1 [Example 30, 4-((2S,5R)-4-(Bis(4-fluorophenyl)methyl)-5-ethyl-2-methylpiperazin-1-yl)-1-(((S)-tetrahydrofuran-2-yl)methyl)-1H-[1,2,3]triazolo[4,5-e][1,2,4]triazolo[4,3-a]pyrimidine] | ≤ 0.02 µM | ≤ 0.02 µM |
| CC[C@H]1CN(C(c2ccc(F)cc2)c2ccc(F)cc2)[C@H](CC)CN1c1nc2nncn2c2c1nnn2C[C@@H]1CCCO1 [Example 31, 4-((2S,5R)-4-(Bis(4-fluorophenyl)methyl)-2,5-diethylpiperazin-1-yl)-1-(((S)-tetrahydrofuran-2-yl)methyl)-1H-[1,2,3]triazolo[4,5-e][1,2,4]triazolo[4,3-a]pyrimidine] | ≤ 0.02 µM | ≤ 0.02 µM |
| CC[C@@H]1CN(c2nc3nncn3c3c2nnn3C[C@H]2CCCO2)[C@@H](C)CN1C(c1ccc(F)cc1)c1ccc(F)cc1 [Example 32, 4-((2S,5R)-4-(Bis(4-fluorophenyl)methyl)-5-ethyl-2-methylpiperazin-1-yl)-1-(((R)-tetrahydrofuran-2-yl)methyl)-1H-[1,2,3]triazolo[4,5-e][1,2,4]triazolo[4,3-a]pyrimidine] | ≤ 0.02 µM | ≤ 0.02 µM |
| CC[C@H]1CN(C(c2ccc(F)cc2)c2ccc(F)cc2)[C@H](CC)CN1c1nc2nncn2c2c1nnn2C[C@H]1CCCO1 [Example 33, 4-((2S,5R)-4-(Bis(4-fluorophenyl)methyl)-2,5-diethylpiperazin-1-yl)-1-(((R)-tetrahydrofuran-2-yl)methyl)-1H-[1,2,3]triazolo[4,5-e][1,2,4]triazolo[4,3-a]pyrimidine] | ≤ 0.02 µM | ≤ 0.02 µM |
| [2H]c1nc2c(N3C[C@@H](C)N(C(c4ccc(F)cc4)c4ccc(F)cc4)C[C@@H]3C)nc3nncn3c2n1CCN(C)C [Example 34, 2-(4-((2S,5R)-4-(Bis(4-fluorophenyl)methyl)-2,5-dimethylpiperazin-1-yl)-1H-[1,2,4]triazolo[3,4-b]purin-1-yl-2-d)-N,N-dimethylethan-1-amine] | ≤ 0.02 µM | ≤ 0.02 µM |
| CC[C@H]1CN(C(c2ccc(F)cc2)c2ccc(F)cc2)[C@H](CC)CN1c1nc2nncn2c2c1ncn2CCN(C)C [Example 35, 2-(4-((2S,5R)-4-(Bis(4-fluorophenyl)methyl)-2,5-diethylpiperazin-1-yl)-1H-[1,2,4]triazolo[3,4-b]purin-1-yl)-N,N-dimethylethan-1-amine] | ≤ 0.02 µM | ≤ 0.02 µM |
| [2H]c1nc2c(N3C[C@@H](CC)N(C(c4ccc(F)cc4)c4ccc(F)cc4)C[C@@H]3CC)nc3nncn3c2n1CCN(C)C [Example 36, 2-(4-((2S,5R)-4-(Bis(4-fluorophenyl)methyl)-2,5-diethylpiperazin-1-yl)-1H-[1,2,4]triazolo[3,4-b]purin-1-yl-2-d)-N,N-dimethylethan-1-amine] | ≤ 0.02 µM | ≤ 0.02 µM |
| CC[C@@H]1CN(c2nc3nncn3c3c2ncn3CCN(C)C)[C@@H](C)CN1C(c1ccc(F)cc1)c1ccc(F)cc1 [Example 37, 2-(4-((2S,5R)-4-(Bis(4-fluorophenyl)methyl)-5-ethyl-2-methylpiperazin-1-yl)-1H-[1,2,4]triazolo[3,4-b]purin-1-yl)-N,N-dimethylethan-1-amine] | ≤ 0.02 µM | ≤ 0.02 µM |
| [2H]c1nc2c(N3C[C@@H](CC)N(C(c4ccc(F)cc4)c4ccc(F)cc4)C[C@@H]3C)nc3nncn3c2n1CCN(C)C [Example 38, 2-(4-((2S,5R)-4-(Bis(4-fluorophenyl)methyl)-5-ethyl-2-methylpiperazin-1-yl)-1H-[1,2,4]triazolo[3,4-b]purin-1-yl-2-d)-N,N-dimethylethan-1-amine] | ≤ 0.02 µM | ≤ 0.02 µM |
| CC[C@@H]1CN(c2nc3nncn3c3c2nnn3C[C@@H]2CCCO2)[C@@H](C)CN1C(c1ccc(Cl)cc1)c1ccc(Cl)cc1 [Example 39, 4-((2S,5R)-4-(Bis(4-chlorophenyl)methyl)-5-ethyl-2-methylpiperazin-1-yl)-1-(((S)-tetrahydrofuran-2-yl)methyl)-1H-[1,2,3]triazolo[4,5-e][1,2,4]triazolo[4,3-a]pyrimidine] | ≤ 0.02 µM | ≤ 0.02 µM |
| CC[C@@H]1CN(c2nc3nncn3c3c2nnn3C[C@H]2CCCO2)[C@@H](C)CN1C(c1ccc(Cl)cc1)c1ccc(Cl)cc1 [Example 40, 4-((2S,5R)-4-(Bis(4-chlorophenyl)methyl)-5-ethyl-2-methylpiperazin-1-yl)-1-(((R)-tetrahydrofuran-2-yl)methyl)-1H-[1,2,3]triazolo[4,5-e][1,2,4]triazolo[4,3-a]pyrimidine] | ≤ 0.02 µM | ≤ 0.02 µM |
| CC[C@@H]1CN(c2nc3nncn3c3c2nc(C)n3C[C@@H]2CCCO2)[C@@H](C)CN1C(c1ccc(Cl)cc1)c1ccc(Cl)cc1 [Example 41, 4-((2S,5R)-4-(Bis(4-chlorophenyl)methyl)-5-ethyl-2-methylpiperazin-1-yl)-2-methyl-1-(((S)-tetrahydrofuran-2-yl)methyl)-1H-[1,2,4]triazolo[3,4-b]purine] | ≤ 0.02 µM | ≤ 0.02 µM |
| CC[C@@H]1CN(c2nc3nncn3c3c2nc(C)n3C[C@H]2CCCO2)[C@@H](C)CN1C(c1ccc(Cl)cc1)c1ccc(Cl)cc1 [Example 42, 4-((2S,5R)-4-(Bis(4-chlorophenyl)methyl)-5-ethyl-2-methylpiperazin-1-yl)-2-methyl-1-(((R)-tetrahydrofuran-2-yl)methyl)-1H-[1,2,4]triazolo[3,4-b]purine] | ≤ 0.02 µM | ≤ 0.02 µM |
| Cc1nc2c(N3C[C@@H](C)N([C@H](c4ccc(F)c(F)c4)C4CC(F)(F)C4)C[C@@H]3C)nc3nncn3c2n1C[C@@H]1CCCO1 [Example 46, 4-((2S,5R)-4-((S)-(3,3-Difluorocyclobutyl)(3,4-difluorophenyl)methyl)-2,5-dimethylpiperazin-1-yl)-2-methyl-1-(((S)-tetrahydrofuran-2-yl)methyl)-1H-[1,2,4]triazolo[3,4-b]purine] | ≤ 0.02 µM | ≤ 0.02 µM |
| Cc1nc2c(N3C[C@@H](C)N([C@@H](c4ccc(F)c(F)c4)C4CC(F)(F)C4)C[C@@H]3C)nc3nncn3c2n1C[C@@H]1CCCO1 [Example 47, 4-((2S,5R)-4-((R)-(3,3-difluorocyclobutyl)(3,4-difluorophenyl)methyl)-2,5-dimethylpiperazin-1-yl)-2-methyl-1-(((S)-tetrahydrofuran-2-yl)methyl)-1H-[1,2,4]triazolo[3,4-b]purine] | ≤ 0.02 µM | ≤ 0.02 µM |
